Source: US20130109693A1, “DERIVATIVES OF PYRIDO [3,2-D] PYRIMIDINE, METHODS FOR PREPARATION THEREOF AND THERAPEUTIC USES THEREOF” (UNIVERSITE D'ORLEANS, priority 2010, published 2013)

Assays:
[1] = system: Huh7; assay: Cytotoxicity on human cells, Huh7 (liver); format: cell-based; conditions: Huh-7, human cells, exposed 24 h and 48 h, 0.1 to 25 μM
Experimental: (§1) […] Dosages on Human cells (Huh7, Caco, MDA-MB 231, HCT 116, PC3, NCl, Fibroblast)
(§2) Cytotoxicity: This method is based on an automated imaging analysis. 4.10^3 cells were cultivated on 96-well plates and thus left for 24 hours so that they may bind, be distributed and proliferate.
(§3) These cells were then exposed for 24 h and 48 h to increasing concentrations of the compounds of the invention, from 0.1 to 25 μM in a final volume of 80 μL of culture medium. The cells are then set with a 4% paraformaldehyde solution and the nuclei are colored with Hoechst 3342 and counted according to automated imaging quantification.
(§4) All the cell lines were cultivated in a DMEM or RPMI (Invitrogen) medium. All these media were completed with antibiotics (penicillin-streptomycin)(Lonza) and 10% by volume of foetal calf serum (Invitrogen). The cells were cultivated at 37° C. with 5% of CO2. The treatments with the molecules to be tested were carried out with increasing concentrations. […] The control experiments were also conducted by using suitable dilutions of DMSO (maximum 1% DMSO). Cell viability was determined by measuring the reduction of MTS as described in the article of Ribas J, Boix J. (2004). Cell differentiation caspase inhibition and macromolecular synthesis blockage but not BCL-2 or BCL-XL proteins protect SH-SY5Y cells from apoptosis triggered by two CDK inhibitory drugs. Exp. Cell Res., 295: 9-24.

[2] = system: Caco; assay: Cytotoxicity on human cells, Caco (colon); format: cell-based; conditions: exposed 24 h and 48 h, 0.1 to 25 μM
Experimental: as §1, §2, §3, §4

[3] = system: MDA-MB 231; assay: Cytotoxicity on human cells, MDA-MB 231 (breast); format: cell-based; conditions: MDA-MB-231, human cells, exposed 24 h and 48 h, 0.1 to 25 μM
Experimental: as §1, §2, §3, §4

[4] = system: HCT 116; assay: Cytotoxicity on human cells, HCT 116 (colon); format: cell-based; conditions: exposed 24 h and 48 h, 0.1 to 25 μM
Experimental: as §1, §2, §3, §4

[5] = system: PC3; assay: Cytotoxicity on human cells, PC3 (prostate); format: cell-based; conditions: PC-3, human cells, exposed 24 h and 48 h, 0.1 to 25 μM
Experimental: as §1, §2, §3, §4

[6] = system: NCI; assay: Cytotoxicity on human cells, NCI (lung); format: cell-based; conditions: exposed 24 h and 48 h, 0.1 to 25 μM
Experimental: as §1, §2, §3, §4

[7] = system: fibroblast; assay: Cytotoxicity on human cells, fibroblast; format: cell-based; conditions: exposed 24 h and 48 h, 0.1 to 25 μM
Experimental: as §1, §2, §3, §4

[8] = target: DYRK1A (Homo sapiens, UniProt Q13627); assay: DYRK1A kinase inhibition (Woodtide substrate, buffer A); format: biochemical; conditions: 15 μM ATP, 30° C., recombinant GST fusion; read-out: IC50 Kinases DYRK1A
Experimental: (§5) The activities for inhibiting protein kinases of the compounds of the invention are tested according to the following general procedure:
(§6) Buffer A: 10 mM MgCl2, 1 mM EGTA, 1 mM DTT, 25 mM Tris-HCl pH 7.5 and 50 μg heparin/mL.
(§7) The kinase activities are dosed in buffers A or C, at 30° C., at a final concentration of ATP of 15 μM. The values of the blanks were subtracted and the activities are expressed as a % of the maximum activity, i.e. in the absence of inhibitors. The controls were carried out with suitable dilutions of DMSO.

[9] = target: T1, CDK5 (Homo sapiens, UniProt Q00535); assay: CDK5 kinase inhibition (histone H1, [γ-33P] ATP, buffer C); format: biochemical; conditions: 15 μM ATP, 30° C., recombinant; read-out: IC50 Kinases CDK5
T1 construct: made in house
Experimental: as §5
Buffer C: 60 mM β-glycerophosphate, 15 mM p-nitrophenyl-phosphate, 25 mM Mops (pH 7.2), 5 mM EGTA, 15 mM MgCl2, 1 mM DTT, 1 mM of sodium vanadate
as §7
CDK5 (humane, recombinant) was prepared as described earlier (Leclerc, S.; Garnier, M.; Hoessel, R.; Marko, D.; Bibb, J. A.; Snyder, G. L.; Greengard, P.; Biernat, J.; Mandelkow, E.-M.; Eisenbrand, G.; Meijer, L. Indirubins inhibit glycogen synthase kinase-3β and CDK5/p25, two kinases involved in abnormal tau phosphorylation in Alzheimer's disease—A property common to most CDK inhibitors? J. Biol. Chem. 2001, 276, 251-260; Bach S, Knockaert M, Reinhardt J, Lozach O, Schmitt S, Baratte B et al. (2005). Roscovitine targets, protein kinases and pyridoxal kinase. J. Biol Chem 280: 31208-31219). Its kinase activity was analyzed in the buffer C, with 1 mg of histone H1/mL, in the presence of 15 μM of [γ-^33P] ATP (3,000 Ci/mmol; 10 mCi/mL) in a final volume of 30 μl. After 30 mins of incubation at 30° C., 25 μl of supernatant aliquots were deposited on 2.5×3 cm pieces of phosphocellulose Whatman P81 paper, and after 20 seconds, the filters were washed five times (for at least 5 minutes every time) in a solution of 10 mL phosphoric acid/liter of water. The wet filters were counted in the presence of 1 mL of ACS scintillator fluid (Amersham).

[10] = target: GSK-3αβ; assay: GSK-3αβ kinase inhibition (GS-1 substrate, buffer A); format: biochemical; conditions: 15 μM ATP, 30° C., native, pig brain; read-out: IC50 Kinases GSK3
Experimental: as §5, §6, §7
GSK-3αβ (from pig brain, native) was assayed by using a specific substrate of GSK-3 (GS-1: […]pEDEEE)(Sp represents a phosphorylated serine) (Primot, A., Baratte, B., Gompel, M., Borgne, A., Liabeuf, S., Romette, J. L., Costantini, F. and Meijer, L., 2000. Purification of GSK-3 by affinity chromatography on immobilized axin. Protein Expr. & Purif. 20 (3), 394-404). GS-1 was synthesized by Millegen (Labège, France). Its kinase activity was analyzed in the buffer A, with 1 mg of histone H1/mL, in the presence of 15 μM of [γ-^33P] ATP (3,000 Ci/mmol; 10 mCi/mL) in a final volume of 30 μl. After 30 mins of incubation at 30° C., 25 μl of supernatant aliquots were deposited on 2.5×3 cm pieces of phosphocellulose Whatman P81papier, and after 20 seconds, the filters were washed five times (for at least 5 minutes every time) in a solution of 10 mL of phosphoric acid/liter of water. The wet filters were counted in the presence of 1 mL of ACS scintillator fluid (Amersham).

T1 sequence (Q00535 whole entry): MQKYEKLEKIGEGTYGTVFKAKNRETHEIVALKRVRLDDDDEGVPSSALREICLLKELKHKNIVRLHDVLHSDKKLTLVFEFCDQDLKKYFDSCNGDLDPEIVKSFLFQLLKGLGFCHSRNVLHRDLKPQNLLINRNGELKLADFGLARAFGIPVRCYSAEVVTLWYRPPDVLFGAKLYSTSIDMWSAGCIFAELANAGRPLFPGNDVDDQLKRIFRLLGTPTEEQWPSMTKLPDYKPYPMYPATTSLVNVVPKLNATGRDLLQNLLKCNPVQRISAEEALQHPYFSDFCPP
T1 sequence (Q15078 99-307 partner limits assumed): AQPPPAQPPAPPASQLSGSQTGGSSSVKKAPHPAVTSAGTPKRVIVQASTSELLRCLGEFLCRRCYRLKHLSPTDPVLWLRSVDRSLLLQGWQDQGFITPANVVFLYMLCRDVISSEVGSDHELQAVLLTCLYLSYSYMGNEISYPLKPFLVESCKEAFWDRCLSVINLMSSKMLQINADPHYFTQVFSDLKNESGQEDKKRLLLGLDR

Row | Structure (SMILES) | IC50 [8] | IC50 [9] | IC50 [10] | melting point | IC50 [1] | IC50 [2] | IC50 [3] | IC50 [4] | IC50 [5] | IC50 [6] | IC50 [7]
1 | Oc1ccc(-c2ncc3ncc(Nc4nc5ccccc5s4)cc3n2)cc1 [Compound 47, 2-(4-Hydroxyphenyl)-7-(2-benzothiazolamino)-pyrido[3,2-d]pyrimidine] | > 10 µM | 5.3 µM | > 10 µM | > 268 °C | > 25 µM | > 25 µM | > 25 µM | > 25 µM | > 25 µM | > 25 µM | > 25 µM
2 | COc1ccc(Nc2cnc3cnc(-c4ccc(O)cc4)nc3c2)cc1 [Compound 51, 2-(4-Hydroxyphenyl)-7-(4-methoxyphenylamino)-pyrido[3,2-d]pyrimidine] | > 10 µM | 1.8 µM | 7.3 µM | 134 to 136 °C | 15 µM | 12 µM | 15 µM | 15 µM | 2 µM | 10 µM | 10 µM
3 | Oc1ccc(-c2ncc3ncc(Nc4ncccn4)cc3n2)cc1 [Compound 52, 2-(4-Hydroxyphenyl)-7-(2-pyrimidinylamino)-pyrido[3,2-d]pyrimidine] | > 10 µM | 7.6 µM | > 10 µM | > 268 °C | 25 µM | 5 µM | 2.5 µM | 2 µM | 1.5 µM | 1.5 µM | 2 µM
4 | Cc1ncccc1Nc1cnc2cnc(-c3ccc(O)cc3)nc2c1 [Compound 53, 2-(4-Hydroxyphenyl)-7-(3-(2-methyl)-pyridinylamino)-pyrido[3,2-d]pyrimidine] | > 10 µM | > 10 µM | > 10 µM | 186 to 188 °C | 12 µM | 15 µM | 9 µM | > 25 µM | 6 µM | 15 µM | 10 µM
5 | N#Cc1ccc(Nc2cnc3cnc(-c4ccc(O)cc4)nc3c2)nc1 [Compound 54, 2-(4-Hydroxyphenyl)-7-(2-(5-cyano)pyridinylamino)-pyrido[3,2-d]pyrimidine] | > 10 µM | 4 µM | 5.5 µM | > 268 °C | > 25 µM | > 25 µM | 12 µM | > 25 µM | > 25 µM | 20 µM | > 25 µM

Now from value to compound, other results behind:

Row | IC50 [8] | IC50 [9] | IC50 [10] | melting point | Structure (SMILES) | IC50 [1] | IC50 [2] | IC50 [3] | IC50 [4] | IC50 [5] | IC50 [6] | IC50 [7]
6 | > 10 µM | 1.2 µM | > 10 µM | 246 to 248 °C | COc1ccc(-c2cnc3cnc(-c4ccc(O)cc4)nc3c2)cn1 [Compound 32, 2-(4-Hydroxyphenyl)-7-(3-(6-methoxy)-pyridinyl)-pyrido[3,2-d]pyrimidine] | > 25 µM | > 25 µM | 25 µM | > 25 µM | > 25 µM | 25 µM | 10 µM
7 | > 10 µM | 0.65 µM | > 10 µM | > 268 °C | Oc1ccc(-c2ncc3ncc(-c4cccnc4)cc3n2)cc1 [Compound 33, 2-(4-Hydroxyphenyl)-7-(3-pyridinyl)-pyrido[3,2-d]pyrimidine] | > 25 µM | > 25 µM | > 25 µM | > 25 µM | > 25 µM | > 25 µM | > 25 µM
8 | > 10 µM | 0.13 µM | > 10 µM | > 268 °C | Oc1ccc(-c2ncc3ncc(-c4ccncc4)cc3n2)cc1 [Compound 34, 2-(4-Hydroxyphenyl)-7-(4-pyridinyl)-pyrido[3,2-d]pyrimidine] | > 25 µM | > 25 µM | > 25 µM | 10 µM | > 25 µM | 5 µM | 15 µM
9 | > 10 µM | 1.8 µM | > 10 µM | 261 to 263 °C | Oc1ccc(-c2ncc3ncc(-c4ccco4)cc3n2)cc1 [Compound 35, 2-(4-Hydroxyphenyl)-7-(2-furyl)-pyrido[3,2-d]pyrimidine] | 15 µM | > 25 µM | 4 µM | 5 µM | 20 µM | 7 µM | 6 µM
10 | > 10 µM | 0.12 µM | > 10 µM | 248 to 250 °C | Oc1ccc(-c2ncc3ncc(-c4ccsc4)cc3n2)cc1 [Compound 37, 2-(4-Hydroxyphenyl)-7-(3-thiophyl)-pyrido[3,2-d]pyrimidine] | > 25 µM | > 25 µM | > 25 µM | 15 µM | > 25 µM | 10 µM | > 25 µM
11 | > 10 µM | 0.11 µM | > 10 µM | 240 to 242 °C | Oc1ccc(-c2ncc3ncc(-c4cccs4)cc3n2)cc1 [Compound 38, 2-(4-Hydroxyphenyl)-7-(2-thiophyl)-pyrido[3,2-d]pyrimidine] | > 25 µM | > 25 µM | > 25 µM | 4 µM | 25 µM | 3 µM | 2 µM
12 | 2 µM | 2.1 µM | > 10 µM | > 268 °C | Oc1ccc(-c2ncc3ncc(Nc4ccon4)cc3n2)cc1 [Compound 48, 2-(4-Hydroxyphenyl)-7-(3-isoxazolamino)-pyrido[3,2-d]pyrimidine] | 25 µM | 20 µM | 12 µM | 9 µM | 20 µM | 3 µM | 15 µM
13 | > 10 µM | > 10 µM | > 10 µM | > 268 °C | Cc1csc(Nc2cnc3cnc(-c4ccc(O)cc4)nc3c2)n1 [Compound 50, 2-(4-Hydroxyphenyl)-7-(2-(4-methyl)thiazolamino)-pyrido[3,2-d]pyrimidine] | 10 µM | > 25 µM | 25 µM | > 25 µM | > 25 µM | 25 µM | > 25 µM
